Laboratory results reported in ChEMBL document CHEMBL2074515, “Inhibitory effect of anti-diabetic agents on rat organic anion transporter rOAT1” (Eur J Pharmacol, 2000).

Each compound was assayed against T1, Solute carrier family 22 member 6 (Rattus norvegicus, UniProt O35956) (assay: TP_TRANSPORTER: inhibition of PAH uptake in Xenopus laevis oocytes).
T1 sequence (O35956 whole entry): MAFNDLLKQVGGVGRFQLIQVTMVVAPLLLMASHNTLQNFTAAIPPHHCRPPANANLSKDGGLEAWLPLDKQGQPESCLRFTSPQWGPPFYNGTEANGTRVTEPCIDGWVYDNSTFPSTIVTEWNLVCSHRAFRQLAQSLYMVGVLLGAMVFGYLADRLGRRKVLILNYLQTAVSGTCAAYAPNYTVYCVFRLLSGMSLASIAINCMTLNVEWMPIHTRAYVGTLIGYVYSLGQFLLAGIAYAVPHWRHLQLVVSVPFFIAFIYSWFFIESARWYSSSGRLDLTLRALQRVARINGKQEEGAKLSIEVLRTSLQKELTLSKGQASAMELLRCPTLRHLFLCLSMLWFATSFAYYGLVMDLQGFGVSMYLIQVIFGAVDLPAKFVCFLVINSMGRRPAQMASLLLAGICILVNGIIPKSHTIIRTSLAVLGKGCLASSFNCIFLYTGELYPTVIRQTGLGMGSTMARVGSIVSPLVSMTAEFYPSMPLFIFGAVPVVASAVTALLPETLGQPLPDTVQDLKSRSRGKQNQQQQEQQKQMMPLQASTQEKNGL
Type: functional, cell-based, Oocyte
`CCCCNC(=O)NS(=O)(=O)c1ccc(C)cc1` [TOLBUTAMIDE] showed a Ki of 55.5 µM. Work on `CCCNC(=O)NS(=O)(=O)c1ccc(Cl)cc1` [CHLORPROPAMIDE] yielded a Ki of 39.5 µM. `COc1ccc(Cl)cc1C(=O)NCCc1ccc(S(=O)(=O)NC(=O)NC2CCCCC2)cc1` [GLYBURIDE] showed a Ki of 1.6 µM. With `CC(C)[C@H]1CC[C@H](C(=O)N[C@H](Cc2ccccc2)C(=O)O)CC1` [NATEGLINIDE] the Ki was 9.2 µM.
